14 compounds from BindingDB's records for doi:10.1016/j.bioorg.2016.07.002 (Universiti Teknologi Mara, 2016) can be followed below.

Each structure is given as a SMILES string.

The assay has as its target T1, Beta-glucuronidase (Bos taurus, UniProt A3KMY8).
T1 sequence (A3KMY8 whole entry): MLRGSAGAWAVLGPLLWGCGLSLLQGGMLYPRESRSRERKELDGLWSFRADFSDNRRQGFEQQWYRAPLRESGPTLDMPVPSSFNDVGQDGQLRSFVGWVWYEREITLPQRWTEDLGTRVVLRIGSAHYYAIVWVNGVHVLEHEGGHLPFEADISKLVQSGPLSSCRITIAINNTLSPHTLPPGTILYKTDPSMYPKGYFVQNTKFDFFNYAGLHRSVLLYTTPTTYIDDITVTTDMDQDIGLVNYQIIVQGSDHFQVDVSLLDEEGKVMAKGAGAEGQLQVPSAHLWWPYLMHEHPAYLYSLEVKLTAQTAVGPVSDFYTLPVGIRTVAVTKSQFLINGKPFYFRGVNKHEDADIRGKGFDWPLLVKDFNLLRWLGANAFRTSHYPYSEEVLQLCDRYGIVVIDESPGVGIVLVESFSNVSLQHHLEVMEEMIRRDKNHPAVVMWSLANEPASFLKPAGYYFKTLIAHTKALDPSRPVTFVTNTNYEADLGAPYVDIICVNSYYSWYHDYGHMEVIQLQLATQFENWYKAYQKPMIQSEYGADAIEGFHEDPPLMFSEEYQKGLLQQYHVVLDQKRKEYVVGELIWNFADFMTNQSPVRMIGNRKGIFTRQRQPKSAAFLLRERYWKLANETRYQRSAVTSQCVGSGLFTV
The assay is described as follows: β-Glucuronidase assay. On the procedure:
[…] was the volume of total reaction. Reaction mixture containing 5 µL of test compound solution, 185 µL of 0.1 M acetate buffer and 10 µL of enzyme solution wereincubated for 30 min at 37 °C. […] Experiments were performed for triplicate. To avoid precipitation compound concentration were decreased and the volume of reactionwas high (200 µL).
As to `Cc1ccccc1S(=O)(=O)Nc1ccccc1SSc1ccccc1NS(=O)(=O)c1ccccc1C` [N,N'-(disulfanediylbis(2,1-phenylene))bis(2-methylbenzenesulfonamide) (14)], the concentration for half-maximal inhibition (IC50) (usually the concentration that gives 50% inhibition) is 34.3 µM.
`O=S(=O)(Nc1ccccc1SSc1ccccc1NS(=O)(=O)c1cccc(Br)c1)c1cccc(Br)c1` [N,N'-(disulfanediylbis(2,1-phenylene))bis(3-bromobenzenesulfonamide) (9)]: 88.2 µM corresponded to half-maximal inhibition (IC50).
As for `O=S(=O)(Nc1ccccc1SSc1ccccc1NS(=O)(=O)c1ccc(F)cc1)c1ccc(F)cc1` [N,N'-(disulfanediylbis(2,1-phenylene))bis(4-fluorobenzenesulfonamide) (6)], the IC50 was 13.2 µM.
The figure for `O=S(=O)(Nc1ccccc1SSc1ccccc1NS(=O)(=O)c1cccc(Cl)c1)c1cccc(Cl)c1` [N,N'-(disulfanediylbis(2,1-phenylene))bis(3-chlorobenzenesulfonamide) (2)] is 25 µM; for `COc1ccc(S(=O)(=O)Nc2ccccc2SSc2ccccc2NS(=O)(=O)c2ccc(OC)cc2)cc1` [N,N'-(disulfanediylbis(2,1-phenylene))bis(4-methoxybenzenesulfonamide) (20)] it is 56.3 µM.
Then `O=[N+]([O-])c1ccccc1S(=O)(=O)Nc1ccccc1SSc1ccccc1NS(=O)(=O)c1ccccc1[N+](=O)[O-]` [N,N'-(disulfanediylbis(2,1-phenylene))bis(2-nitrobenzenesulfonamide) (10)], with 14.2 µM; and `O=S(=O)(Nc1ccccc1SSc1ccccc1NS(=O)(=O)c1cccc(F)c1)c1cccc(F)c1` [N,N'-(disulfanediylbis(2,1-phenylene))bis(3-fluorobenzenesulfonamide) (5)], with 34.5 µM; and `O=[N+]([O-])c1ccc(S(=O)(=O)Nc2ccccc2SSc2ccccc2NS(=O)(=O)c2ccc([N+](=O)[O-])cc2)cc1` [N,N'-(disulfanediylbis(2,1-phenylene))bis(4-nitrobenzenesulfonamide) (11)], with 28.4 µM.
Then `O=S(=O)(Nc1ccccc1SSc1ccccc1NS(=O)(=O)c1ccccc1Br)c1ccccc1Br` [N,N'-(disulfanediylbis(2,1-phenylene))bis(2-bromobenzenesulfonamide) (7)], with 58.5 µM; and `O=S(=O)(Nc1ccccc1SSc1ccccc1NS(=O)(=O)c1cc(Cl)ccc1Cl)c1cc(Cl)ccc1Cl` [N,N'-(disulfanediylbis(2,1-phenylene))bis(2,5-dichlorobenzenesulfonamide) (18)], with 16.2 µM; and `O=S(=O)(Nc1ccccc1SSc1ccccc1NS(=O)(=O)c1ccccc1F)c1ccccc1F` [N,N'-(disulfanediylbis(2,1-phenylene))bis(2-fluorobenzenesulfonamide) (4)], with 6.23 µM.
`O=S(=O)(Nc1ccccc1SSc1ccccc1NS(=O)(=O)c1ccc(Cl)cc1Cl)c1ccc(Cl)cc1Cl` [N,N'-(disulfanediylbis(2,1-phenylene))bis(2,4-dichlorobenzenesulfonamide) (17)] showed an IC50 of 11.3 µM. This IC50 is about 1.8-fold higher than that of the compound before.
Then `O=S(=O)(Nc1ccccc1SSc1ccccc1NS(=O)(=O)c1ccccc1Cl)c1ccccc1Cl` [N,N'-(disulfanediylbis(2,1-phenylene))bis(2-chlorobenzenesulfonamide) (1)], with 8.18 µM.
Then `O=[N+]([O-])c1cccc(S(=O)(=O)Nc2ccccc2SSc2ccccc2NS(=O)(=O)c2cccc([N+](=O)[O-])c2)c1` [N,N'-(disulfanediylbis(2,1-phenylene))bis(3-nitrobenzenesulfonamide) (12)], with 59.3 µM.
